Reference: paper PMC6136660 (Steroids, 2018)

Assays:
[1] = target: T1, mineralocorticoid receptor (Homo sapiens, UniProt P08235); assay: In vitro reporter assays for steroid hormone receptors, agonist and antagonist modes; type: cell-based; details: in vitro reporter assays (unpublished observations)
T1 sequence (P08235 1-984): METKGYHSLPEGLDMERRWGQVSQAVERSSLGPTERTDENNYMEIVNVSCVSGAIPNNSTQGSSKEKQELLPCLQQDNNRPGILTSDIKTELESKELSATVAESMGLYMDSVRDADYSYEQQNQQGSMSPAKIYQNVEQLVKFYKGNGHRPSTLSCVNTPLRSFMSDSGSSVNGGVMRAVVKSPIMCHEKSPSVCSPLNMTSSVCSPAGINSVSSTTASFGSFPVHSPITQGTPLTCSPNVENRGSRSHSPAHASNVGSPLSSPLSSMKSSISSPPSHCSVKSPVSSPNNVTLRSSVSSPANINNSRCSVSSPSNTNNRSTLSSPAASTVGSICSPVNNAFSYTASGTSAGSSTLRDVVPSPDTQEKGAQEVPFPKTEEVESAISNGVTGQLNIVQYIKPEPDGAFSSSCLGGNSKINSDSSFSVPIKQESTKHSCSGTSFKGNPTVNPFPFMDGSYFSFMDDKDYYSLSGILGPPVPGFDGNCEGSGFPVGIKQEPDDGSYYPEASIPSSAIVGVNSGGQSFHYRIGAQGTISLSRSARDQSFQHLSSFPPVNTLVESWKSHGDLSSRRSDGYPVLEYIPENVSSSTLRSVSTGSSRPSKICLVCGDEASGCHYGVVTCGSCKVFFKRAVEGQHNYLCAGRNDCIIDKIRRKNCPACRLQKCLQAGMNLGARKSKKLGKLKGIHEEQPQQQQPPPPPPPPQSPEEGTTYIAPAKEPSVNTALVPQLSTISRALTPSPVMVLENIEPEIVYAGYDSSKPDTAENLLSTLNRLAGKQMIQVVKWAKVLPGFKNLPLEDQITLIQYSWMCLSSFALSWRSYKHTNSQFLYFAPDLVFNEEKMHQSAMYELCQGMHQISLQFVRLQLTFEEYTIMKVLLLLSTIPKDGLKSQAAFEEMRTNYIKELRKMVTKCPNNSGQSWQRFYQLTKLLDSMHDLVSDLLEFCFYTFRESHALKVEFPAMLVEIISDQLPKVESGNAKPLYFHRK
Description: In addition to the dissociation of […] (lost) and transrepression (retained) activities, vamorolone has changed additional sub-activities of traditional glucocorticoids. Cortisol and pharmacological glucocorticoids show high affinity for the mineralocorticoid receptor, similar to its physiological ligand, aldosterone. Glucocorticoids and aldosterone act as agonists for the mineralocorticoid receptor, and high circulating levels of pharmacological glucocorticoids result in salt imbalance and water weight gain (Cushingoid appearance) via the reninangiotensin system. […] Vamorolone can not be metabolized by 11β-Hydroxysteroid dehydrogenase (11BHSD) isoforms, and thus should show greater stability in aldosterone-responsive cells (e.g. not inactivated as cortisol and glucocorticoids are).

[2] = test system: CTX1 (C-terminal telopeptide of collagen 1); assay: Serum CTX1 (bone resorption biomarker), MAD; type: in vivo, human; details: mean±SEM
Experimental: (§1) All biomarkers were analyzed using standard immunoassays by PRA.
(§2) Pharmacological glucocorticoids cause bone side effects including osteopenia and bone fragility. Bone turnover markers bridged to later bone morbidities include osteocalcin for bone formation, and CTX1 (C-terminal telopeptide of collagen 1) for bone absorption. These biomarkers predict phenotypes of osteopenia and used in clinical trials to monitor bone side effects of treatments. […] (Supplemental Fig. 2). In the vamorolone Phase 1 trial, serum osteocalcin levels were assayed prior to dosing (Day 1 predose), 8 h after initial dose (Day 1), pre-dose on day 14 of daily dosing, 8 h after the day 14 (last) dose, and during recovery days 15 and 17.

osteocalcin = assay: Serum osteocalcin (bone formation biomarker), MAD; type: in vivo, human; details: for Osteocalcin: mean±SEM
Experimental: as §1, §2

[3] = MAD 1.0 mg/kg, Day 1 (8 h after initial dose)
[4] = MAD 1.0 mg/kg, Day 1 (predose), baseline
[5] = MAD 1.0 mg/kg, Day 14 (8 h after last dose)
[6] = MAD 1.0 mg/kg, Day 14 (predose)
[7] = MAD 3.0 mg/kg, Day 1 (8 h after initial dose)
[8] = MAD 3.0 mg/kg, Day 1 (predose), baseline
[9] = MAD 3.0 mg/kg, Day 14 (8 h after last dose)
[10] = MAD 3.0 mg/kg, Day 14 (predose)
[11] = MAD 9.0 mg/kg, Day 1 (8 h after initial dose)
[12] = MAD 9.0 mg/kg, Day 1 (predose), baseline
[13] = MAD 9.0 mg/kg, Day 14 (8 h after last dose)
[14] = MAD 9.0 mg/kg, Day 14 (predose)
[15] = MAD 20.0 mg/kg, Day 1 (8 h after initial dose)
[16] = MAD 20.0 mg/kg, Day 1 (predose), baseline
[17] = MAD 20.0 mg/kg, Day 14 (8 h after last dose)
[18] = MAD 20.0 mg/kg, Day 14 (predose)
[19] = MAD 20.0 mg/kg, Day 15 recovery
[20] = MAD 20.0 mg/kg, Day 17 recovery

In the case of `C[C@@H]1C[C@H]2[C@@H]3CCC4=CC(=O)C=C[C@]4(C)C3=CC[C@]2(C)[C@@]1(O)C(=O)CO` [vamorolone], the “activity at the mineralocorticoid receptor” value [1] is reported as “potent antagonist”, the CTX1 [2, 3] is reported as 0.22 ± 0.02 ng/mL and the CTX1 [2, 4] is reported as 0.50 ± 0.11 ng/mL. For the same compound, the CTX1 [2, 5] was 0.22 ± 0.01 ng/mL, the CTX1 [2, 6] was 0.58 ± 0.12 ng/mL and the CTX1 ([2]; MAD 1.0 mg/kg, Day 15 recovery) was 0.68 ± 0.16 ng/mL. It also gave a CTX1 ([2]; MAD 1.0 mg/kg, Day 17 recovery) of 0.55 ± 0.09 ng/mL, a CTX1 [2, 7] of 0.18 ± 0.00 ng/mL and a CTX1 [2, 8] of 0.31 ± 0.05 ng/mL. It also gave a CTX1 [2, 9] of 0.18 ± 0.00 ng/mL, a CTX1 [2, 10] of 0.48 ± 0.13 ng/mL and a CTX1 ([2]; MAD 3.0 mg/kg, Day 15 recovery) of 0.48 ± 0.10 ng/mL. The CTX1 ([2]; MAD 3.0 mg/kg, Day 17 recovery) was 0.46 ± 0.12 ng/mL, the CTX1 [2, 11] was 0.19 ± 0.006 ng/mL and the CTX1 [2, 12] was 0.59 ± 0.11 ng/mL. For the same compound, the CTX1 [2, 13] was 0.23 ± 0.03 ng/mL, the CTX1 [2, 14] was 0.73 ± 0.14 ng/mL and the CTX1 ([2]; MAD 9.0 mg/kg, Day 15 recovery) was 0.77 ± 0.13 ng/mL. It also gave a CTX1 ([2]; MAD 9.0 mg/kg, Day 17 recovery) of 0.60 ± 0.10 ng/mL, a CTX1 [2, 15] of 0.22 ± 0.02 ng/mL and a CTX1 [2, 16] of 0.70 ± 0.14 ng/mL. The CTX1 [2, 17] was 0.29 ± 0.06 ng/mL, the CTX1 [2, 18] was 0.88 ± 0.12 ng/mL and the CTX1 [2, 19] was 0.92 ± 0.14 ng/mL. It also gave a CTX1 [2, 20] of 0.76 ± 0.10 ng/mL, an Osteocalcin (osteocalcin; [3]) of 27.4 ± 9.3 ng/mL and an Osteocalcin (osteocalcin; [4]) of 33.2 ± 11.5 ng/mL. For the same compound, the Osteocalcin (osteocalcin; [5]) was 21.0 ± 7.8 ng/mL, the Osteocalcin (osteocalcin; [6]) was 30.3 ± 9.7 ng/mL and the Osteocalcin (osteocalcin; MAD 1.0 mg/kg, Day 15 recovery) was 28.8 ± 9.3 ng/mL. It also gave an Osteocalcin (osteocalcin; MAD 1.0 mg/kg, Day 17 recovery) of 25.9 ± 8.0 ng/mL, an Osteocalcin (osteocalcin; [7]) of 13.6 ± 11.5 ng/mL and an Osteocalcin (osteocalcin; [8]) of 13.7 ± 11.6 ng/mL. For the same compound, the Osteocalcin (osteocalcin; [9]) was 13.0 ± 11.0 ng/mL, the Osteocalcin (osteocalcin; [10]) was 17.1 ± 13.3 ng/mL and the Osteocalcin (osteocalcin; MAD 3.0 mg/kg, Day 15 recovery) was 16.1 ± 12.5 ng/mL. It also gave an Osteocalcin (osteocalcin; MAD 3.0 mg/kg, Day 17 recovery) of 13.9 ± 9.5 ng/mL, an Osteocalcin (osteocalcin; [11]) of 20.4 ± 4.7 ng/mL and an Osteocalcin (osteocalcin; [12]) of 32.9 ± 8.6 ng/mL. The Osteocalcin (osteocalcin; [13]) was 18.7 ± 4.3 ng/mL, the Osteocalcin (osteocalcin; [14]) was 24.0 ± 6.4 ng/mL and the Osteocalcin (osteocalcin; MAD 9.0 mg/kg, Day 15 recovery) was 26.7 ± 5.2 ng/mL. The Osteocalcin (osteocalcin; MAD 9.0 mg/kg, Day 17 recovery) was 33.5 ± 7.2 ng/mL, the Osteocalcin (osteocalcin; [15]) was 20.2 ± 4.6 ng/mL and the Osteocalcin (osteocalcin; [16]) was 31.5 ± 6.7 ng/mL. The Osteocalcin (osteocalcin; [17]) was 17.0 ± 3.7 ng/mL, the Osteocalcin (osteocalcin; [18]) was 32.8 ± 7.6 ng/mL and the Osteocalcin (osteocalcin; [19]) was 27.8 ± 5.9 ng/mL. The Osteocalcin (osteocalcin; [20]) was 34.6 ± 6.1 ng/mL and the “osteocalcin and CTX1 vs placebo” value (osteocalcin; any MAD dose group, through 20 mg/kg/day) was “no significant changes”.
